# US7365053B2, “Selective N-acylation of A82846 glygopeptides analogs” (priority 2000, dated 2008)
# Assays:
# [1] = system: Enterococcus faecalis 276; assay: Broth micro-dilution MIC; assay type: cell-based; conditions: BHI medium
# Description: (§1) The compounds of the present invention have in vitro activity against Gram-positive pathogenic bacteria. The antibacterial activity of the present compounds is illustrated in Tables III and IV. The minimal inhibitory concentrations (MICs) were determined using a standard broth micro-dilution assay. Table IV presents a comparison of the activity of illustrative compounds against representative vancomycin-resistant and vancomycin-sensitive enterococci (Enterococcus faecium and Enterococcus faecalis), mean geometric MIC (mcg/mL), as determined by the standard broth microdilution assay.
# (§2) Assays for antimicrobial activity were performed using microbroth susceptibility testing methods as described by the NCCLS (National Committee for Clinical Laboratories Standards. 1990. Approved standard M7-A2. Methods for dilution antimicrobial susceptibility testing for bacteria that grow aerobically, 2 ed., Villanova Pa.). Brain-heart infusion medium (BHI) was used for testing of enterococci, and NCCLS recommendations for medium were followed for other bacteria.
# [2] = system: Staphylococcus haemolyticus 415; assay: Broth micro-dilution MIC; assay type: cell-based
# Description: as §1, §2
# [3] = system: Enterococcus gallinarum 245; assay: Broth micro-dilution MIC; assay type: cell-based; conditions: BHI medium
# Description: as §1, §2
# [4] = system: Staphylococcus aureus X400; assay: Broth micro-dilution MIC; assay type: cell-based
# Description: as §1, §2
# Escherichia coli EC14 = assay: Broth micro-dilution MIC; assay type: cell-based
# Description: as §1, §2
# [5] = system: Staphylococcus haemolyticus 105; assay: Broth micro-dilution MIC; assay type: cell-based
# Description: as §1, §2
# Enterococcus faecium 180 = assay: Broth micro-dilution MIC; assay type: cell-based; conditions: BHI medium
# Description: as §1, §2
# [6] = system: Streptococcus pyogenes C203; assay: Broth micro-dilution MIC; assay type: cell-based
# Description: as §1, §2
# [7] = system: Staphylococcus aureus SA1199; assay: Broth micro-dilution MIC; assay type: cell-based
# Description: as §1, §2
# [8] = system: Streptococcus pneumoniae P1; assay: Broth micro-dilution MIC; assay type: cell-based
# Description: as §1, §2
# [9] = system: Haemophilus influenzae RD; assay: Broth micro-dilution MIC; assay type: cell-based
# Description: as §1, §2
# [10] = system: Staphylococcus aureus 446; assay: Broth micro-dilution MIC; assay type: cell-based
# Description: as §1, §2
# [11] = system: Enterococcus faecalis 2041; assay: Broth micro-dilution MIC; assay type: cell-based; conditions: BHI medium
# Description: as §1, §2
# [12] = system: Staphylococcus epidermidis 270; assay: Broth micro-dilution MIC; assay type: cell-based
# Description: as §1, §2
# [13] = system: Staphylococcus aureus S13E; assay: Broth micro-dilution MIC; assay type: cell-based
# Description: as §1, §2
# [14] = system: Staphylococcus aureus X778; assay: Broth micro-dilution MIC; assay type: cell-based
# Description: as §1, §2
# [15] = system: Staphylococcus aureus SA1199B; assay: Broth micro-dilution MIC; assay type: cell-based
# Description: as §1, §2
# [16] = system: Enterococcus faecium 180-1; assay: Broth micro-dilution MIC; assay type: cell-based; conditions: BHI medium
# Description: as §1, §2
# [17] = system: Staphylococcus aureus 447; assay: Broth micro-dilution MIC; assay type: cell-based
# Description: as §1, §2
# [18] = system: Staphylococcus aureus SA1199A; assay: Broth micro-dilution MIC; assay type: cell-based
# Description: as §1, §2
# [19] = system: Staphylococcus aureus 489; assay: Broth micro-dilution MIC; assay type: cell-based
# Description: as §1, §2
# [20] = system: Staphylococcus aureus 491; assay: Broth micro-dilution MIC; assay type: cell-based
# Description: as §1, §2
# [21] = system: vancomycin-sensitive enterococci; assay: In vitro activity against enterococci, broth microdilution; assay type: cell-based, Enterococcus faecium and Enterococcus faecalis; conditions: representative vancomycin-sensitive enterococci (E. faecium and E. faecalis); BHI medium
# Description: as §1, §2
# [22] = system: vancomycin-resistant enterococci; assay: as above; assay type: cell-based, Enterococcus faecium and Enterococcus faecalis; conditions: representative vancomycin-resistant enterococci (E. faecium and E. faecalis); BHI medium
# Description: as §1, §2
smiles,measurement,setting,value
"CCCCCCCC(=O)NC1(C)CC(OC2c3ccc(c(Cl)c3)Oc3cc4cc(c3OC3OC(CO)C(O)C(O)C3OC3CC(C)(N)C(O)C(C)O3)Oc3ccc(cc3Cl)C(O)C(NC(=O)C(CC(C)C)NC)C(=O)NC(CC(N)=O)C(=O)NC4C(=O)NC3C(=O)NC2C(=O)NC(C(=O)O)c2cc(O)cc(O)c2-c2cc3ccc2O)OC(C)C1O (stereo not drawn) [Example 9, 6′-N-octanoyl-A82846B]",MIC,[1],0.125 µg/mL
same,MIC,[2],16 µg/mL
same,MIC,[3],16 µg/mL
same,MIC,[4],0.5 µg/mL
same,MIC,Escherichia coli EC14,>64 µg/mL
same,MIC,[5],0.25 µg/mL
same,MIC,Enterococcus faecium 180,32 µg/mL
same,MIC,[6],≦.06 μg/ml
same,MIC,[7],0.5 µg/mL
same,MIC,[8],≦.06 μg/ml
same,MIC,[9],64 µg/mL
same,MIC,[10],1 µg/mL
same,MIC,[11],0.5 µg/mL
same,MIC,[12],2 µg/mL
same,MIC,[13],1 µg/mL
same,MIC,[14],0.25 µg/mL
same,MIC,[15],0.5 µg/mL
same,MIC,[16],0.125 µg/mL
same,MIC,[17],2 µg/mL
same,MIC,[18],0.125 µg/mL
same,MIC,[19],0.125 µg/mL
same,MIC,[20],0.125 µg/mL
same,"Mean geometric MIC, Vancomycin Sensitive Strains",[21],1.2 µg/mL
same,"Mean geometric MIC, Vancomycin Resistant Strains",[22],>90 µg/mL
